The CheMixHub viscosity set
± gives the uncertainty stated by the source.

Experiment: xn = mol fraction of the nth substance listed
Conditions: 101.33 kPa

C[N+](=O)[O-] + CC(C)(C)O
viscosity [mPa·s]
Conditions	298.15 K	303.15 K	313.15 K
x2 = 0.05	0.609 ± 0.025	0.569 ± 0.023	0.511 ± 0.021
x2 = 0.1002	0.611 ± 0.025	0.567 ± 0.023	0.506 ± 0.021
x2 = 0.1502	0.642 ± 0.026	0.573 ± 0.023	0.508 ± 0.021
x2 = 0.2	0.644 ± 0.026	0.587 ± 0.024	0.517 ± 0.021
x2 = 0.2499	0.674 ± 0.027	0.609 ± 0.025	0.531 ± 0.022
x2 = 0.3	0.749 ± 0.03	0.638 ± 0.026	0.549 ± 0.022
x2 = 0.3503	0.793 ± 0.032	0.672 ± 0.027	0.573 ± 0.023
x2 = 0.4	0.87 ± 0.035	0.714 ± 0.029	0.601 ± 0.024
x2 = 0.4501	0.894 ± 0.036	0.761 ± 0.031	0.633 ± 0.026
x2 = 0.5001	0.972 ± 0.039	0.819 ± 0.033	0.671 ± 0.027
x2 = 0.55	1.072 ± 0.043	0.886 ± 0.036	0.717 ± 0.029
x2 = 0.6001	1.154 ± 0.047	0.962 ± 0.039	0.811 ± 0.033
x2 = 0.6499	1.219 ± 0.049	1.057 ± 0.043	0.829 ± 0.034
x2 = 0.7	1.361 ± 0.055	1.174 ± 0.047	0.885 ± 0.036
x2 = 0.75	1.557 ± 0.063	1.32 ± 0.053	0.966 ± 0.039
x2 = 0.8	1.776 ± 0.072	1.491 ± 0.06	1.106 ± 0.045
x2 = 0.85	2.079 ± 0.084	1.72 ± 0.069	1.244 ± 0.05
x2 = 0.8999	2.51 ± 0.1	2.05 ± 0.083	1.442 ± 0.058
x2 = 0.95	3.194 ± 0.13	2.527 ± 0.1	1.697 ± 0.069
